Measurements as given in BindingDB's records for patent US11649233 (Nanjing Transthera Biosciences, 2023).

Target: T1, Amine oxidase [copper-containing] 3 (Homo sapiens, UniProt Q16853)
T1 sequence (Q16853 whole entry): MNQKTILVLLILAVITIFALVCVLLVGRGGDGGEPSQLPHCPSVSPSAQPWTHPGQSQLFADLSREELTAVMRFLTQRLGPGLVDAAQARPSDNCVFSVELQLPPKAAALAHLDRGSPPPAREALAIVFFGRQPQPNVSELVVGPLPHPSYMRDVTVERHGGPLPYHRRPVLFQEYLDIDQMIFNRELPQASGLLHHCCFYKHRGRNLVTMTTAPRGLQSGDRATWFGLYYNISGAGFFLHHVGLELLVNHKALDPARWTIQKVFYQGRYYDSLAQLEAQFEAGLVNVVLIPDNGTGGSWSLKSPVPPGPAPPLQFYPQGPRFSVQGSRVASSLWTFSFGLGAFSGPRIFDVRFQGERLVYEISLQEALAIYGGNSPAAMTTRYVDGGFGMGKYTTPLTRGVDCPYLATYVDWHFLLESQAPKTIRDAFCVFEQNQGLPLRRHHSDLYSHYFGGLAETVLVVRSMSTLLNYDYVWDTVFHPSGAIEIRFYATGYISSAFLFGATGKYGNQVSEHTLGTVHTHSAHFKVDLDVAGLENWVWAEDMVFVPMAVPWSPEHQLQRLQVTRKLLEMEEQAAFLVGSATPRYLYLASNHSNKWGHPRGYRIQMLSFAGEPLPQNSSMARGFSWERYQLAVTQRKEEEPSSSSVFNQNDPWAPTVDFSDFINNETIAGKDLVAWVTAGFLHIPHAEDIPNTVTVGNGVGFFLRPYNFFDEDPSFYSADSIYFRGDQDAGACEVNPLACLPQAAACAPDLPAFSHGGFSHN
Experiment: Inhibition Activity of the Compound on rhVAP-1 and MAO-A/B
Experimental: Test substances: the compounds of the present invention shown in Table 1 and prepared according to the methods of the examples 1. Inhibition Activity of the Compounds on the rhVAP-1 Enzyme (1) Instrument, consumable and reagent Multifunctional microplate reader (MD, FlexStation 3), black bottom-impermeable 96-well plate (Corning), rhVAP-1 (PeproTech) (2) Preparation of Compound Concentration Gradient Solutions An appropriate amount of the test compound was dissolved in DMSO to 10 mM and stored. Before the experiment, an appropriate amount of 10 mM test compound mother liquor was diluted to 10 μM solution with DMSO. Then 3-fold gradient dilution with DMSO was performed, and 10 concentration gradients were formed.(3) Preparation of Enzyme Solutions. An appropriate amount of protein diluent was added to the rhVAP-1 powder to obtain 1 mg/mL of the mother liquor for storage. […] Then 50 μL of 2×substrate mixed solution was added to each well, and immediately the detection was performed with the microplate reader in a condition of an exciting light at 565 nm, an emitting light at 590 nm, the fluorescence intensity for detecting each well of 5 minutes/run, and a total detection time of 25 minutes.

SMILES: CC(C)N1CCc2cc(OC/C(=C/F)CN)ccc2C1=O [US11649233, Compound 4]
- IC50: 59 nM
